Test results taken from PMC9603521, “WYBQ-4: a New Bactericidal Agent against Methicillin-Resistant Staphylococcus aureus” (Microbiology Spectrum, 2022).
Read-outs that look alike come from different tables or passages of the source.

Assays:
PBP2a [1] = conditions: cited from earlier work; for Kd: read-out: ks
MRSA USA300 [2] = experiment: TEM analysis of cell morphology / division defects; assay type: cell-based, Staphylococcus aureus; conditions: 4 μg/mL (1/2× MIC), 3 h
Experimental: MRSA USA300 was cultured overnight, diluted (1:100) into 20 mL of Trypticase soy broth (TSB) medium, and incubated at 30°C with shaking until the optical density at 600 nm (OD600) reached 0.3. […] Bacterial cells treated with 4 μg/mL ceftaroline fosamil (1/2 of their respective MIC) served as a control group. Untreated S. aureus served as a negative control. Bacteria were collected and washed in PBS and resuspended in 4% (vol/vol) glutaraldehyde fixation overnight. The fixed samples were further processed, and morphological changes in S. aureus were observed by TEM (JSM-7900F; JEOL, Japan).

PBP2a [3] = biological target: PBP2a (Staphylococcus aureus, UniProt P07944); experiment: PBP2a acylation kinetics, nitrocefin competition assay; assay type: biochemical, MRSA
Experimental: Please refer to the supplemental material for the kinetic parameters of the interaction between WYBQ-4 and PBP2a and the determination of the rate of diacylation.
Supplementary Method. 1 Determination of the Kinetic Parameters for Interactions of […]
Determination of the kinetic parameters for interactions of WYBQ-4 with PBP2a The kinetic parameters of the interaction of WYBQ-4 with PBP2a were determined as previously described (1). The kinetics of the reaction between PBP2a of MRSA with WYBQ-4 was studied in homogeneous aqueous solution at 37℃ in 25 mM Hepes buffer, pH 7.0, containing 1 M NaCl and the inhibition of PBPs by β-lactams follows this kinetic scheme. […]
In this minimal scheme, E represents PBP2a, EI is the noncovalent preacylation complex, E-I is the covalent acyl-enzyme species, and P denotes the product of E-I hydrolysis and restoration of […]
The typical reactions of β-lactam could be monitored through competition with a chromophoric β-lactam, nitrocefin, or directly in certain cases by fluorescence intensity of protein. In this study, it is proposed to determine the secondary rate constants (k2/Ks) of WYBQ-4 by nitrocefin competition assay. The reaction was conducted in the above buffer, and the reaction system contained PBP2a (2.5 μM) and different concentrations of nitrocefin (20-120 μM). The reaction was carried out in a UV spectrophotometer (PERSEE T600, China) and the change in absorbance at 500 nm was […]
Apparent first-order rate constants for acylation by nitrocefin were determined by fitting the change in absorbance with time to eqn. (1):
A = A0 + ∆εn E0[(1 − exp (−kn∗ t)] + k0N0∆εn Ε0t (1) where A0 is the initial absorbance at 500 nm, ∆εn the change in molar absorption coefficient on nitrocefin hydrolysis (15900 M-1cm-1), E0 the initial enzyme concentration, N0 the initial nitrocefin concentration, kn* the (burst) pseudo-first-order rate constant for acylation of PBP2a by nitrocefin, and k0 the (line) second-order rate constant of a non-specific hydrolysis of nitrocefin in the presence of PBP2a. The second-order rate constants (kn) for acylation were calculated by fitting a plot of the apparent first-order rate constants (kn*) against the concentration of nitrocefin using a linear least-squares method.
Subsequently, nitrocefin (100 μM) was used as a reporter molecule to determine the apparent first-order rate constants for acylation of WYBQ-4 at different concentrations (0-500 μM) in competition assays. In this case, the change in absorbance at 500 nm with time was fitted to eqn.
Α = A + ∆ε E (k∗ ∕ (k∗ + k∗)(1 − exp (−(k∗ + k∗)t)) + k N ∆ε Ε t (2) […]

MRSA USA300 [4] = experiment: Mouse systemic infection model; assay type: in vivo, mice; conditions: USA300 5 × 10^7 CFU, 150 mg/kg, tail intravenous injection at 0 and 3 h, 7-day
Experimental: The S. aureus-induced systemic infection model of mice (6-week-old female C57BL/6J mice) was established as previously described ([46]). […] The mice infected in the same way were treated with physiological saline as an infection control group. The mock group was not infected with S. aureus, and the 7-day mortality of the mice in each group was calculated.

MRSA USA300 [5] = experiment: Mouse lung infection model, bacterial load and histopathology; assay type: in vivo, mice; conditions: mouse pneumonia, USA300; after treatment
Experimental: The mice were challenged with 1 × 10^8 CFU of MRSA USA300 to assess bacterial load and pathological changes. The dose and manner of administration in mice were consistent with the survival experiments. In addition, the mice treated with ceftaroline fosamil at 75 and 37.5 mg/kg were used as control groups. At 48 h postinfection, mice were euthanized, and the left lungs were aseptically removed, weighed, and homogenized. Then, the lung tissues were homogenized and serially diluted for CFU counts. The right lungs were fixed with 10% formalin, embedded in paraffin, thin-sectioned, subjected to conventional hematoxylin and eosin (H&E) staining, and then observed using an optical microscope.

MRSA USA300 [6] = experiment: Mouse lung infection model, survival; assay type: in vivo, mice; conditions: mouse pneumonia, USA300 2 × 10^8 CFU, 12-h intervals, within 72 h
Experimental: The animal experiments were performed using 6-week-old male C57BL/6J mice, and the mouse model of lung infection caused by MRSA USA300 was established as previously described ([43], [44]). For the survival rate, mice (10 per group) were infected with MRSA USA300 (2 × 10^8 CFU per mouse). After 2 h of infection, mice were given WYBQ-4 via subcutaneous injection and reinjected at 12-h intervals, whereas mice were treated with ceftaroline fosamil at the same doses and served as positive controls. Mice injected with only MRSA USA300 were used as a negative control. Survival of mice was recorded within 72 h, and survival rates were calculated.

MSSA ATCC 29213 = experiment: Postantibiotic effect (viable plate count); assay type: cell-based, Staphylococcus aureus; conditions: 1 h exposure
Experimental: The postantibiotic effect (PAE) of WYBQ-4 against MSSA 29213 was determined in MHB agar using the viable plate count method ([39]). […] After incubation at 37°C for 1 h, WYBQ-4 was removed by centrifugation and washing with phosphate-buffered saline (PBS). Subsequently, fresh MHB medium was added to resuspend the bacteria, and the mixture was incubated at 37°C with shaking. The number of colonies was counted by taking 10 μL of bacteria at 1-h intervals and applying them to BHI agar plates after appropriate dilution. PAE duration was calculated as follows: time (h) for bacteria to return to log-phase growth after drug treatment – time (h) for the control group to return to log-phase growth ([40]).

PBP2a [7] = conditions: as reported; cited from earlier work

Chain of PBP2a (Staphylococcus aureus, UniProt P07944) (P07944 whole entry): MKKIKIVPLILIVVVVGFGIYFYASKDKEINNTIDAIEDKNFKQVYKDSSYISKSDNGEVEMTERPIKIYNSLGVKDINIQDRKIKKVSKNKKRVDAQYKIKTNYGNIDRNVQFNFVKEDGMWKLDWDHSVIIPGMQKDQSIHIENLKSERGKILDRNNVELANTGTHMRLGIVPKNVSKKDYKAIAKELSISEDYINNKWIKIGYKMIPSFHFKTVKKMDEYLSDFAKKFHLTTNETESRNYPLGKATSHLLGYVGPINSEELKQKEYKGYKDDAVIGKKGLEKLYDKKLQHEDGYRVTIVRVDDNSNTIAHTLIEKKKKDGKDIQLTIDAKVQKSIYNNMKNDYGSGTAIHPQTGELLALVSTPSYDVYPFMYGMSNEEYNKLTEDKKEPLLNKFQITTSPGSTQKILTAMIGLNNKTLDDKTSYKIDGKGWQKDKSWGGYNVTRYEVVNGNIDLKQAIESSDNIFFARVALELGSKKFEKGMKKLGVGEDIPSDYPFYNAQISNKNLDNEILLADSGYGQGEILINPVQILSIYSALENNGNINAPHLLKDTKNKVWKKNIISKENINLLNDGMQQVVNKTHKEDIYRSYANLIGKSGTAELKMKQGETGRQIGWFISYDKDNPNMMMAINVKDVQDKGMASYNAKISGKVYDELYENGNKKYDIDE

SMILES: CC1(C)S[C@@H]2[C@H](NC(=O)[C@H](N)c3ccccc3)C(=O)N2[C@H]1C(=O)O [Ampicillin]
- k2 (PBP2a [1]; PBP2a): 3.4 ± 0.1 s^–1 × 10^3
- k2/ks (PBP2a [1]; PBP2a): 5.0 ± 1.0 M^–1s^–1
- k3 (PBP2a [1]; PBP2a): 3.2 ± 0.1 s^–1 × 10^6
- Kd (PBP2a [1]; PBP2a): 668 ± 124 µM

SMILES: CCO/N=C(\C(=O)N[C@@H]1C(=O)N2C(C(=O)[O-])=C(Sc3nc(-c4cc[n+](C)cc4)cs3)CS[C@H]12)c1nsc(N)n1 [Ceftaroline]
- Percentage of defective cells (thin cell walls) (MRSA USA300 [2]): 71.9%
- k2/ks (PBP2a [1]; PBP2a acylation): 4,500 ± 640 M^–1s^–1
- k2/ks (PBP2a [1]; PBP2a acylation, listed as ceftaroline): 4,500 M^–1s^–1
- Kd (PBP2a [1]; PBP2a): 20 ± 4 µM

SMILES: CC(C)(O/N=C(\C(=O)N[C@@H]1C(=O)N2C(C(=O)[O-])=C(C[n+]3ccccc3)CS[C@H]12)c1csc(N)n1)C(=O)O [Ceftazidime]
- k2 (PBP2a [1]; PBP2a): 1.0 ± 0.1 s^–1 × 10^3
- k2/ks (PBP2a [1]; PBP2a): 1.5 ± 0.3 M^–1s^–1
- k3 (PBP2a [1]; PBP2a): 3.2 ± 0.2 s^–1 × 10^6
- Kd (PBP2a [1]; PBP2a): 671 ± 116 µM

SMILES: O=C(Cc1cccs1)N[C@@H]1C(=O)N2C(C(=O)O)=C(/C=C/c3ccc([N+](=O)[O-])cc3[N+](=O)[O-])CS[C@H]12 [Nitrocefin]
- k2 (PBP2a [1]; PBP2a): 3.7 ± 0.3 s^–1 × 10^3
- k2/ks (PBP2a [1]; PBP2a): 19.0 ± 3.0 M^–1s^–1
- k3 (PBP2a [1]; PBP2a): 7.2 ± 0.1 s^–1 × 10^6
- Kd (PBP2a [1]; PBP2a): 192 ± 24 µM
- primary reaction rate constant, kn* (PBP2a [3]; 100 μM nitrocefin, acylation of PBP2a): approximately 0.05 s^−1
- secondary rate constant, k0, for the nonspecific hydrolysis of nitrocefin (PBP2a [3]; in the presence of PBP2a): 2.3 ± 0.14 M⁻¹ s⁻¹

SMILES: CO/N=C(\C(=O)N[C@@H]1C(=O)N2C(C(=O)[O-])=C(C[N+]3(C)CCCC3)CS[C@H]12)c1csc(N)n1 [cefepime]
- survival rate (MRSA USA300 [4]): 40%
- k2 (PBP2a [1]; PBP2a): 1.5 ± 0.1 s^–1 × 10^3
- k2/ks (PBP2a [1]; PBP2a): 0.9 ± 0.1 M^–1s^–1
- k3 (PBP2a [1]; PBP2a): 5.9 ± 0.5 s^–1 × 10^6

SMILES: CCO/N=C(\C(=O)N[C@@H]1C(=O)N2C(C(=O)[O-])=C(Sc3nc(-c4cc[n+](C)cc4)cs3)CS[C@H]12)c1nsc(NP(=O)(O)O)n1 [ceftaroline fosamil, reference compound]
- inflammatory signs of lung tissue (H&E histopathology) (MRSA USA300 [5]): significantly reduced
- survival rate (MRSA USA300 [6]; 37.5 mg/kg subcutaneous): 26.67%
- survival rate (MRSA USA300 [6]; 75 mg/kg subcutaneous): 76.67%
- Asymmetry of bacterial division (number of cells) (MRSA USA300 [2]): 41
- Distortion of septa (number of cells) (MRSA USA300 [2]): 31
- Percentage of defective cells (asymmetry of bacterial division) (MRSA USA300 [2]): 46.1 C %
- Percentage of defective cells (distortion of septa) (MRSA USA300 [2]): 34.8 B %
- Percentage of defective cells (thin cell walls) (MRSA USA300 [2]): 71.9 C %
- Thin cell walls (number of cells) (MRSA USA300 [2]): 64

SMILES: CO[C@@]1(NC(=O)C(C(=O)O)c2ccc(O)cc2)C(=O)N2C(C(=O)O)=C(CSc3nnnn3C)CO[C@@H]21 (some centres unmarked) [moxalactam, reference compound]
- survival rate (MRSA USA300 [4]): 50%
- PAE (MSSA ATCC 29213; 2× MIC): 1 h
- PAE (MSSA ATCC 29213; 8× MIC): 2.5 h

SMILES: Cc1onc(-c2ccccc2)c1C(=O)N[C@@H]1C(=O)N2[C@@H]1SC(C)(C)[C@@H]2C(=O)O [oxacillin]
- IC50 for PBP2a (PBP2a [7]): 408 ± 6 µg/mL
